In the supplement of paper PMC10307832:

Experiments:
Assay in all cases: relative viability (nuclei count vs DMSO), 5 days (fraction); higher = more cells survive
[1] = tested on: NCI-H522
Method in brief: (§1)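 Each reported value is a median over duplicate plates. It expresses relative viability: treated-well nuclei count divided by vehicle-well nuclei count. Lung cancer cell lines in 1536-well plates were dosed by pin tool a day after seeding, alone with one drug or with a fixed anchor-drug dose plus five library-drug doses (not always all listed) in √10 steps, and nuclei were counted after 5 days.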

[2] = tested on: SK-LU-1
Method in brief: as §1

[3] = tested on: A-427
Method in brief: as §1

[4] = tested on: NCI-H1395
Method in brief: as §1

[5] = tested on: NCI-H1755
Method in brief: as §1

[6] = tested on: NCI-H23
Method in brief: as §1

[7] = tested on: HCC-827
Method in brief: as §1

[8] = tested on: CAL-12T
Method in brief: as §1

[9] = tested on: NCI-H1915
Method in brief: as §1

[10] = tested on: NCI-H460
Method in brief: as §1

[11] = tested on: LCLC-103H
Method in brief: as §1

[12] = tested on: NCI-H2228
Method in brief: as §1

[13] = tested on: SW 1573
Method in brief: as §1

[14] = tested on: EMC-BAC-2
Method in brief: as §1

[15] = tested on: NCI-H2009
Method in brief: as §1

[16] = tested on: NCI-H1792
Method in brief: as §1

[17] = tested on: NCI-H1437
Method in brief: as §1

[18] = tested on: HARA
Method in brief: as §1

[19] = tested on: COR-L 105
Method in brief: as §1

[20] = tested on: NCI-H727
Method in brief: as §1

[21] = tested on: HOP-62
Method in brief: as §1

[22] = tested on: HCC-366
Method in brief: as §1

Which relative viability ([1]; first compound 0.08 µM) does the source give for COc1nc(C)cnc1NS(=O)(=O)c1cccnc1-c1ccc(-c2nnco2)cc1 [Zibotentan] + COc1cccc2cc(-c3nc([C@H]4CC[C@H](C(=O)O)CC4)n4ncnc(N)c34)[nH]c12 [OSI-027] (partner 0.5 µM) here?
Its relative viability is 0.704.

And the relative viability ([1]; first compound 0.253 µM)?
The relative viability was 0.717.

What about the relative viability ([1]; first compound 0.8 µM) of the same compound?
Its relative viability is 0.684.

What about the relative viability ([1]; first compound 2.53 µM) of the same compound?
Its relative viability is 0.835.

And the relative viability ([2]; first compound 0.08 µM)?
Its relative viability is 0.38.

And the relative viability ([2]; first compound 0.253 µM)?
The relative viability was 0.31.

And the relative viability ([2]; first compound 0.8 µM)?
Its relative viability is 0.344.

What about the relative viability ([2]; first compound 2.53 µM) of the same compound?
Its relative viability is 0.325.

And the relative viability ([3]; first compound 0.08 µM)?
The relative viability was 0.54.

And the relative viability ([3]; first compound 0.253 µM)?
The relative viability was 0.425.

And the relative viability ([3]; first compound 0.8 µM)?
The relative viability was 0.501.

And the relative viability ([3]; first compound 2.53 µM)?
The relative viability was 0.579.

What about the relative viability ([4]; first compound 0.08 µM) of the same compound?
The relative viability was 0.727.

What about the relative viability ([4]; first compound 0.253 µM) of the same compound?
The relative viability was 0.633.

And the relative viability ([4]; first compound 0.8 µM)?
The relative viability was 0.577.

And the relative viability ([4]; first compound 2.53 µM)?
The relative viability was 0.7.

What about the relative viability ([5]; first compound 0.08 µM) of the same compound?
The relative viability was 0.716.

What about the relative viability ([5]; first compound 0.253 µM) of the same compound?
Its relative viability is 0.685.

What about the relative viability ([5]; first compound 0.8 µM) of the same compound?
The relative viability was 0.715.

What about the relative viability ([5]; first compound 2.53 µM) of the same compound?
The relative viability was 0.793.

What about the relative viability ([6]; first compound 0.08 µM) of the same compound?
Its relative viability is 0.63.

What about the relative viability ([6]; first compound 0.253 µM) of the same compound?
The relative viability was 0.619.

And the relative viability ([6]; first compound 0.8 µM)?
The relative viability was 0.389.

And the relative viability ([6]; first compound 2.53 µM)?
Its relative viability is 0.743.

And the relative viability ([7]; first compound 0.08 µM)?
Its relative viability is 0.826.

And the relative viability ([7]; first compound 0.253 µM)?
Its relative viability is 0.836.

And the relative viability ([7]; first compound 0.8 µM)?
Its relative viability is 0.754.

And the relative viability ([7]; first compound 2.53 µM)?
The relative viability was 0.767.

And the relative viability ([8]; first compound 0.08 µM)?
The relative viability was 0.559.

And the relative viability ([8]; first compound 0.253 µM)?
The relative viability was 0.551.

And the relative viability ([8]; first compound 0.8 µM)?
Its relative viability is 0.614.

And the relative viability ([8]; first compound 2.53 µM)?
Its relative viability is 0.629.

And the relative viability ([9]; first compound 0.08 µM)?
The relative viability was 0.637.

And the relative viability ([9]; first compound 0.253 µM)?
The relative viability was 0.627.

What about the relative viability ([9]; first compound 0.8 µM) of the same compound?
The relative viability was 0.603.

And the relative viability ([9]; first compound 2.53 µM)?
The relative viability was 0.649.

What about the relative viability ([10]; first compound 0.08 µM) of the same compound?
Its relative viability is 0.665.

And the relative viability ([10]; first compound 0.253 µM)?
Its relative viability is 0.408.

What about the relative viability ([10]; first compound 0.8 µM) of the same compound?
The relative viability was 0.593.

What about the relative viability ([10]; first compound 2.53 µM) of the same compound?
Its relative viability is 0.66.

And the relative viability ([11]; first compound 0.08 µM)?
Its relative viability is 0.453.

And the relative viability ([11]; first compound 0.253 µM)?
Its relative viability is 0.467.

And the relative viability ([11]; first compound 0.8 µM)?
The relative viability was 0.451.

What about the relative viability ([11]; first compound 2.53 µM) of the same compound?
The relative viability was 0.465.

What about the relative viability ([12]; first compound 0.08 µM) of the same compound?
The relative viability was 0.623.

And the relative viability ([12]; first compound 0.253 µM)?
The relative viability was 0.571.

And the relative viability ([12]; first compound 0.8 µM)?
The relative viability was 0.484.

What about the relative viability ([12]; first compound 2.53 µM) of the same compound?
Its relative viability is 0.659.

And the relative viability ([13]; first compound 0.08 µM)?
The relative viability was 0.651.

What about the relative viability ([13]; first compound 0.8 µM) of the same compound?
Its relative viability is 0.699.

What about the relative viability ([13]; first compound 2.53 µM) of the same compound?
Its relative viability is 0.659.

And the relative viability ([14]; first compound 0.08 µM)?
Its relative viability is 0.376.

And the relative viability ([14]; first compound 0.8 µM)?
The relative viability was 0.381.

And the relative viability ([14]; first compound 2.53 µM)?
Its relative viability is 0.414.

What about the relative viability ([15]; first compound 0.08 µM) of the same compound?
The relative viability was 0.677.

And the relative viability ([15]; first compound 0.253 µM)?
Its relative viability is 0.632.

And the relative viability ([15]; first compound 0.8 µM)?
The relative viability was 0.711.

What about the relative viability ([15]; first compound 2.53 µM) of the same compound?
Its relative viability is 0.754.

And the relative viability ([16]; first compound 0.08 µM)?
Its relative viability is 0.803.

What about the relative viability ([16]; first compound 0.253 µM) of the same compound?
The relative viability was 0.583.

What about the relative viability ([16]; first compound 0.8 µM) of the same compound?
Its relative viability is 0.563.

And the relative viability ([16]; first compound 2.53 µM)?
The relative viability was 0.751.

What about the relative viability ([17]; first compound 0.08 µM) of the same compound?
The relative viability was 0.845.

What about the relative viability ([17]; first compound 0.253 µM) of the same compound?
The relative viability was 0.84.

What about the relative viability ([17]; first compound 0.8 µM) of the same compound?
Its relative viability is 0.855.

What about the relative viability ([17]; first compound 2.53 µM) of the same compound?
Its relative viability is 0.919.

And the relative viability ([18]; first compound 0.08 µM)?
The relative viability was 0.42.

And the relative viability ([18]; first compound 0.253 µM)?
Its relative viability is 0.462.

And the relative viability ([18]; first compound 0.8 µM)?
Its relative viability is 0.437.

What about the relative viability ([18]; first compound 2.53 µM) of the same compound?
Its relative viability is 0.715.

What about the relative viability ([19]; first compound 0.08 µM) of the same compound?
Its relative viability is 0.822.

What about the relative viability ([19]; first compound 0.253 µM) of the same compound?
The relative viability was 0.618.

What about the relative viability ([19]; first compound 0.8 µM) of the same compound?
Its relative viability is 0.941.

And the relative viability ([19]; first compound 2.53 µM)?
The relative viability was 0.909.

What about the relative viability ([20]; first compound 0.08 µM) of the same compound?
Its relative viability is 0.591.

And the relative viability ([20]; first compound 0.253 µM)?
The relative viability was 0.499.

And the relative viability ([20]; first compound 0.8 µM)?
Its relative viability is 0.601.

What about the relative viability ([20]; first compound 2.53 µM) of the same compound?
Its relative viability is 0.696.

What about the relative viability ([21]; first compound 0.08 µM) of the same compound?
The relative viability was 0.903.

And the relative viability ([21]; first compound 0.253 µM)?
The relative viability was 0.871.

What about the relative viability ([21]; first compound 0.8 µM) of the same compound?
Its relative viability is 0.878.

And the relative viability ([21]; first compound 2.53 µM)?
Its relative viability is 0.931.

And the relative viability ([22]; first compound 0.08 µM)?
The relative viability was 0.922.

What about the relative viability ([22]; first compound 0.253 µM) of the same compound?
Its relative viability is 0.884.

What about the relative viability ([22]; first compound 0.8 µM) of the same compound?
Its relative viability is 0.389.

And the relative viability ([22]; first compound 2.53 µM)?
The relative viability was 1.1.
